pIC50: −log10 of the molar value.
Biological target: T1, human TRPV4 (Homo sapiens, UniProt Q9HBA0)
T1 construct: host or cells: tetracycline-inducible Flp-In T-REx 293 cells
Assay: Hypotonicity-induced Ca2+ influx (Fluo-4, FDSS)
Format: cell-based
Outline: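 Flp-In T-REx 293 cells with tetracycline-induced human TRPV4, loaded with Fluo-4 for 60 min at 25 °C. Compound added 5 min before hypotonic mannitol/CaCl2 solution. Ca2+ signal recorded for 4.5 min on FDSS.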

[1] = Flp-In T-REx 293 cells expressing human TRPV4, examples listed under heading 'Human IC50<50 nM'
[2] = Flp-In T-REx 293 cells stably expressing human TRPV4, compounds listed by potency bin (<10 nM Tables 96-1/96-2, <3 nM Table 97)

T1 sequence (Q9HBA0 whole entry): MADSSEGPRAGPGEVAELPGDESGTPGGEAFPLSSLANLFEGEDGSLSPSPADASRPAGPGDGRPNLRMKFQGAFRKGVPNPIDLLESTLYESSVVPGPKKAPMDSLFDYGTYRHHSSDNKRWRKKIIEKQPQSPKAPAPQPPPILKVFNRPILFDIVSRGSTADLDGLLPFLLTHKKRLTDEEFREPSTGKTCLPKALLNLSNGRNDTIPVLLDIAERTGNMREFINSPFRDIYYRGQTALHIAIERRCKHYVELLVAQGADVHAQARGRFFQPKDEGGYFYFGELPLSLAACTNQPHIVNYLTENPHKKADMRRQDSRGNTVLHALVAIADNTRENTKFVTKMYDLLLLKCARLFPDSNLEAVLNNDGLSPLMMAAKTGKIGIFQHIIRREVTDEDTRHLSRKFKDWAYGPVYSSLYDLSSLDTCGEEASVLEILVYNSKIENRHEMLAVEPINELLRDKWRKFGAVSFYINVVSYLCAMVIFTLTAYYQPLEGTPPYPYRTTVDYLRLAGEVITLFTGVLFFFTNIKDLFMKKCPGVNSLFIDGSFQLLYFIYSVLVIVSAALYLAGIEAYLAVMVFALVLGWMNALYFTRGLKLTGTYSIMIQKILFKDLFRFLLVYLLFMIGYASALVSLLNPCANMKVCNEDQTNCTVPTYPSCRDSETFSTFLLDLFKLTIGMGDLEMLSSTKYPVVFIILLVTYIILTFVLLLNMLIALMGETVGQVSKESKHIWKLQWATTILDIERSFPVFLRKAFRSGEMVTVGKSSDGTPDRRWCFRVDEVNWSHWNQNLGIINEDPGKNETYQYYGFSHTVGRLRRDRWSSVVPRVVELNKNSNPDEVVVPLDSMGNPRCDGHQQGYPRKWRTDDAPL

## O=C([C@H](O)c1cccc(-c2cc(Cl)cc(OC(F)(F)F)c2)c1)N1CCc2nc(C3(c4ccccc4)CC3)[nH]c(=O)c2C1 [44-98]
[1]
  pIC50: > 7.30
[2]
  pIC50: > 8.52

## CC(C)(C)c1cccc(-c2cccc([C@@H](O)C(=O)N3CCCc4nc(C5(c6ccccc6)CC5)[nH]c(=O)c4C3)c2)c1 [49-16]
[1]
  pIC50: > 7.30
[2]
  pIC50: > 8.52

## O=C([C@H](O)c1cccc(-c2cc(Cl)cc(Cl)c2)c1)N1CCCc2nc(C3(c4ccccc4)CC3)[nH]c(=O)c2C1 [49-35]
[1]
  pIC50: > 7.30
[2]
  pIC50: > 8.00

## O=C([C@H](O)c1cccc(Cl)c1)N1CCc2nc(C3(c4ccc(F)cc4)CC3)[nH]c(=O)c2C1 [3-22]
[1]
  pIC50: > 7.30

## O=C([C@H](O)c1cccc(-c2coc3ccccc23)c1)N1CCCc2nc(C3(c4ccccc4)CC3)[nH]c(=O)c2C1 [49-46]
[1]
  pIC50: > 7.30
[2]
  pIC50: > 8.52

## O=C([C@H](O)c1cccc(-c2ccccc2OCc2ccccc2)c1)N1CCc2nc(C3(c4ccccc4)CC3)[nH]c(=O)c2C1 [44-111]
[1]
  pIC50: > 7.30

## O=C([C@H](O)c1cccc(-c2cccc(OCc3ccccc3)c2)c1)N1CCCc2nc(C3(c4cccc(Cl)c4)CC3)[nH]c(=O)c2C1 [50-12]
[1]
  pIC50: > 7.30
[2]
  pIC50: > 8.00

## Cc1ccc(-c2cccc([C@@H](O)C(=O)N3CCCc4nc(C5(c6ccccc6)CC5)[nH]c(=O)c4C3)c2)cc1Cl [49-31]
[1]
  pIC50: > 7.30
[2]
  pIC50: > 8.52

## CC(C)c1cccc(C2(c3nc4c(c(=O)[nH]3)CN(C(=O)[C@H](O)c3cccc(-c5cccc(C(C)(C)C)c5)c3)CCC4)CC2)c1 [51-5]
[1]
  pIC50: > 7.30
[2]
  pIC50: > 8.00

## CN(Cc1ccc(-c2cccc(C3(c4nc5c(c(=O)[nH]4)CN(C(=O)[C@H](O)c4cccc(C(F)(F)F)c4)CCC5)CC3)c2)cc1)C(=O)N1CCCCC1 [42-91]
[1]
  pIC50: > 7.30
[2]
  pIC50: > 8.00

## O=C(C(O)c1cccc(-c2cnc3ccccc3c2)c1)N1CCc2nc(C3(c4cccc(Cl)c4)CC3)[nH]c(=O)c2C1 (stereo not shown) [14-3]
[1]
  pIC50: > 7.30
[2]
  pIC50: > 8.00

## O=C([C@H](O)c1cccc(-c2cccc(C(F)(F)F)c2)c1)N1CCCc2nc(C3(c4cc(C5CCCCC5)cs4)CC3)[nH]c(=O)c2C1 [54-9]
[1]
  pIC50: > 7.30
[2]
  pIC50: > 8.00

## N#Cc1ccc(-c2cccc(CC(=O)N3CCCc4nc(C5(c6ccccc6)CC5)[nH]c(=O)c4C3)c2)cc1 [17-131]
[1]
  pIC50: > 7.30

## O=C(Cc1cccc(-c2cccc(Cl)c2)c1)N1CCc2nc(C3(c4cccc(C5CCCCC5)c4)CC3)[nH]c(=O)c2C1 [27-7]
[1]
  pIC50: > 7.30
[2]
  pIC50: > 8.00

## O=C(C(O)c1cccc(-c2ccc(C(F)(F)F)cc2)c1)N1CCc2nc(C3(c4ccccc4)CC3)[nH]c(=O)c2C1 (stereo not shown) [44-25]
[1]
  pIC50: > 7.30

## CC(C)c1csc(C2(c3nc4c(c(=O)[nH]3)CN(C(=O)C(F)(F)c3cccc(Cl)c3)CC4)CC2)c1 [21-4]
[1]
  pIC50: > 7.30
[2]
  pIC50: > 8.00

## O=C(Cc1cccc(-c2ccccc2)c1)N1CCCc2nc(C3(c4cccc(Cl)c4)CC3)[nH]c(=O)c2C1 [17-84]
[1]
  pIC50: > 7.30
[2]
  pIC50: > 8.00

## CC(C)(C)c1cccc(C(O)C(=O)N2CCc3nc(C4(c5cccs5)CC4)[nH]c(=O)c3C2)c1 (stereo not shown) [15-17]
[1]
  pIC50: > 7.30

## O=C([C@H](O)c1cccc(C(F)(F)F)c1)N1CCCc2nc(C3(c4cncc(C(F)(F)F)c4)CC3)[nH]c(=O)c2C1 [19-13]
[1]
  pIC50: > 7.30
[2]
  pIC50: > 8.00

## O=C(C(O)c1cccc(-c2ccc(Cl)s2)c1)N1CCc2nc(C3(c4ccccc4)CC3)[nH]c(=O)c2C1 (stereo not shown) [44-30]
[1]
  pIC50: > 7.30

## O=C([C@H](O)c1cccc(-c2cccc(C(F)(F)F)n2)c1)N1CCCc2nc(C3(c4ccccc4)CC3)[nH]c(=O)c2C1 [49-22]
[1]
  pIC50: > 7.30
[2]
  pIC50: > 8.52

## CC(C)c1cccc(C2(c3nc4c(c(=O)[nH]3)CN(C(=O)C(F)(F)c3cccc(C(F)(F)F)c3)CC4)CC2)c1 [20-13]
[1]
  pIC50: > 7.30

## O=C(C(O)c1cccc(-c2csc3ccccc23)c1)N1CCc2nc(C3(c4ccccc4)CC3)[nH]c(=O)c2C1 (stereo not shown) [44-40]
[1]
  pIC50: > 7.30

## CC(C)c1cccc(C2(c3nc4c(c(=O)[nH]3)CN(C(=O)[C@H](O)c3cccc(C(F)(F)F)c3)CCC4)CC2)c1 [31-8]
[1]
  pIC50: > 7.30
[2]
  pIC50: > 8.52

## O=C([C@H](O)c1cccc(Cl)c1)N1CCCc2nc(C3(c4cccc(-c5cnn(C6CC6)c5)c4)CC3)[nH]c(=O)c2C1 [40-13]
[1]
  pIC50: > 7.30
[2]
  pIC50: > 8.00

## O=C(Cc1cccc(-c2coc3ccccc23)c1)N1CCc2nc(C3(c4cccc(Cl)c4)CC3)[nH]c(=O)c2C1 [14-120]
[1]
  pIC50: > 7.30

## O=C([C@H](O)c1cccc(C(F)(F)F)c1)N1CCCc2nc(C3(c4cccc(-c5cnn(C6CC6)c5)c4)CC3)[nH]c(=O)c2C1 [42-6]
[1]
  pIC50: > 7.30
[2]
  pIC50: > 8.52

## O=C([C@H](O)c1cccc(Cl)c1)N1CCCc2nc(C3(c4cccc(-c5cnsc5)c4)CC3)[nH]c(=O)c2C1 [40-2]
[1]
  pIC50: > 7.30
[2]
  pIC50: > 8.52

## O=C(C(O)c1cccc(C2CC2)c1)N1CCc2nc(C3(c4cccc(Cl)c4)CC3)[nH]c(=O)c2C1 (stereo not shown) [14-15]
[1]
  pIC50: > 7.30

## O=C([C@H](O)c1cccc(Cl)c1)N1CCc2nc(C3(c4cccc(C5CCCC5)c4)CC3)[nH]c(=O)c2C1 [24-1]
[1]
  pIC50: > 7.30
[2]
  pIC50: > 8.00

## O=C([C@H](O)c1cccc(C(F)(F)F)c1)N1CCCc2nc(C3(c4cncc(-c5cnsc5)c4)CC3)[nH]c(=O)c2C1 [43-2]
[1]
  pIC50: > 7.30

## O=C(C(O)c1cccc(-c2ccnc(C(F)(F)F)c2)c1F)N1CCc2nc(C3(c4ccccc4)CC3)[nH]c(=O)c2C1 (stereo not shown) [44-23]
[1]
  pIC50: > 7.30

## O=C([C@H](O)c1cccc(-c2cc(C(F)(F)F)ccc2Cl)c1)N1CCCc2nc(C3(c4ccccc4)CC3)[nH]c(=O)c2C1 [49-52]
[1]
  pIC50: > 7.30
[2]
  pIC50: > 8.52

## O=C(C(O)c1cccc(-c2cccc(F)c2)n1)N1CCc2nc(C3(c4ccccc4)CC3)[nH]c(=O)c2C1 (stereo not shown) [48-10]
[1]
  pIC50: > 7.30

## CC(C)(C)c1cccc(-c2cccc([C@@H](O)C(=O)N3CCCc4nc(C5(c6cc(C7CCCCC7)cs6)CC5)[nH]c(=O)c4C3)c2)c1 [54-7]
[1]
  pIC50: > 7.30
[2]
  pIC50: > 8.00

## O=C(C(O)c1cccc(-c2ccc(Cl)cc2)c1)N1CCCc2nc(C3(c4cccc(Cl)c4)CC3)[nH]c(=O)c2C1 (stereo not shown) [17-17]
[1]
  pIC50: > 7.30
[2]
  pIC50: > 8.00

## CC(C)c1csc(C2(c3nc4c(c(=O)[nH]3)CN(C(=O)C(O)c3cccc(SC(F)(F)F)c3)CCC4)CC2)c1 (stereo not shown) [18-19]
[1]
  pIC50: > 7.30
[2]
  pIC50: > 8.00

## O=C([C@H](O)c1cccc(C(F)(F)F)c1)N1CCCc2nc(C3(c4cccc(-c5ccc(N6CCC(OCc7ccccc7)CC6)nc5)c4)CC3)[nH]c(=O)c2C1 [42-88]
[1]
  pIC50: > 7.30
[2]
  pIC50: > 8.52

## O=C([C@H](O)c1cccc(C(F)(F)F)c1)N1CCCc2nc(C3(c4cccc(-c5ccc(N6CCCC6)nc5)c4)CC3)[nH]c(=O)c2C1 [42-51]
[1]
  pIC50: > 7.30
[2]
  pIC50: > 8.00

## CC(C)(C)c1cccc(CC(=O)N2CCCc3nc(C4(c5ccccc5)CC4)[nH]c(=O)c3C2)c1 [17-142]
[1]
  pIC50: > 7.30

## O=C(C(O)c1cccc(SC(F)(F)F)c1)N1CCCc2nc(C3(c4cccs4)CC3)[nH]c(=O)c2C1 (stereo not shown) [18-6]
[1]
  pIC50: > 7.30
[2]
  pIC50: > 8.00

## O=C(C(O)c1cccc(-c2cccc(OC(F)(F)F)c2)c1)N1CCCc2nc(C3(c4cncc(-c5ccccc5)c4)CC3)[nH]c(=O)c2C1 (stereo not shown) [56-1]
[1]
  pIC50: > 7.30
[2]
  pIC50: > 8.52

## O=C(c1csc(C2(c3nc4c(c(=O)[nH]3)CN(C(=O)[C@H](O)c3cccc(C(F)(F)F)c3)CCC4)CC2)c1)N1Cc2ccccc2C1 [59-4]
[1]
  pIC50: > 7.30

## O=C([C@H](O)c1cccc(C(F)(F)F)c1)N1CCCc2nc(C3(c4cccc(-c5cnc(-c6ccccc6)o5)c4)CC3)[nH]c(=O)c2C1 [17-95]
[1]
  pIC50: > 7.30
[2]
  pIC50: > 8.00

## O=C(Cc1cccc(-c2cccc(Cl)c2)c1)N1CCCc2nc(C3(c4cncc(-c5ccccc5)c4)CC3)[nH]c(=O)c2C1 [19-15]
[1]
  pIC50: > 7.30
[2]
  pIC50: > 8.00

## CC(C)c1cccc(-c2cccc(CC(=O)N3CCCc4nc(C5(c6cccc(Cl)c6)CC5)[nH]c(=O)c4C3)c2)c1 [57-5]
[1]
  pIC50: > 7.30
[2]
  pIC50: > 8.00

## O=C([C@@H](O)c1cccc(C(F)(F)F)c1)N1CCCc2nc(C3(c4cccc(Cl)c4)CC3)[nH]c(=O)c2C1 [17-93]
[1]
  pIC50: > 7.30

## O=C(Cc1cccc(-c2cccc(C(F)(F)F)c2)c1)N1CCCc2nc(C3(c4cc(-c5ccccc5)cs4)CC3)[nH]c(=O)c2C1 [18-28]
[1]
  pIC50: > 7.30
[2]
  pIC50: > 8.00

## O=C([C@H](O)c1cccc(C(F)(F)F)c1)N1CCCc2nc(C3(c4cc(C5CCCC5)cs4)CC3)[nH]c(=O)c2C1 [30-1]
[1]
  pIC50: > 7.30
[2]
  pIC50: > 8.52

## O=C(N1CCCc2nc(C3(c4cncc(-c5ccccc5)c4)CC3)[nH]c(=O)c2C1)C(F)(F)c1cccc(Cl)c1F [22-7]
[1]
  pIC50: > 7.30
[2]
  pIC50: > 8.52

## O=C([C@H](O)c1cccc(C(F)(F)F)c1)N1CCc2nc(C3(c4ccccc4)CC3)[nH]c(=O)c2C1 [3-71]
[1]
  pIC50: > 7.30

## Cc1cccc(-c2cccc(C(O)C(=O)N3CCc4nc(C5(c6ccccc6)CC5)[nH]c(=O)c4C3)c2)c1 (stereo not shown) [44-51]
[1]
  pIC50: > 7.30

## O=C(c1cccc(-c2cccc(C3(c4nc5c(c(=O)[nH]4)CN(C(=O)[C@H](O)c4cccc(C(F)(F)F)c4)CCC5)CC3)c2)c1)N1CCCCC1 [42-9]
[1]
  pIC50: > 7.30
[2]
  pIC50: > 8.52

## O=C(C(F)c1ccccc1)N1CCc2nc(C3(c4ccccc4)CC3)[nH]c(=O)c2C1 (stereo not shown) [2-21]
[1]
  pIC50: > 7.30

## O=C([C@H](O)c1cccc(-c2ccc(Cl)c(OC(F)(F)F)c2)c1)N1CCCc2nc(C3(c4ccccc4)CC3)[nH]c(=O)c2C1 [49-41]
[1]
  pIC50: > 7.30
[2]
  pIC50: > 8.00

## O=C([C@H](O)c1cccc(C(F)(F)F)c1)N1CCCc2nc(C3(c4cc(CCC5COC5)cs4)CC3)[nH]c(=O)c2C1 [30-11]
[1]
  pIC50: > 7.30
[2]
  pIC50: > 8.00

## O=C([C@H](O)c1cccc(Cl)c1)N1CCCc2nc(C3(c4cccc(-c5ccc(C(F)(F)F)cc5)c4)CC3)[nH]c(=O)c2C1 [40-8]
[1]
  pIC50: > 7.30
[2]
  pIC50: > 8.00

## O=C(C(O)c1cccc(-c2ccc(F)c(Cl)c2)c1)N1CCc2nc(C3(c4ccccc4)CC3)[nH]c(=O)c2C1 (stereo not shown) [44-14]
[1]
  pIC50: > 7.30
[2]
  pIC50: > 8.00
